We go through 20 compounds from patent publication US9957268B2, “1H-pyrrolo[2,3,c]pyridin-7(6H)-ones and pyrazolo[3,4-c]pyridin-7(6H)-ones as inhibitors of BET proteins” (Incyte Corporation, priority 2014, dated 2018).

For one experiment, the target named is BRD4-BD1 (Homo sapiens (Human), UniProt O60885). Briefly: BRD4 AlphaScreen assay (BRD4-BD1). In kind it is binding. To be noted: biotin-labeled tetra-acetylated histone H4 peptide. How it is done: (§1) BRD4-BD1 and BRD4-BD2 assays were conducted in white 384-well polystyrene plate in a final volume of 40 μL for BD1 and 60 μL for BD2. Inhibitors were first serially diluted in DMSO and added to the plate wells before the addition of other reaction components. The final concentration of DMSO in the assay was 1.25% (BD1) and 0.83% (BD2). The assays were carried out at room temperature in the assay buffer (50 mM Tris-HCl, pH 7.5, 0.01% Tween-20, 0.01% BSA, 5 mM DTT), containing 50 nM Biotin-labeled tetra-acetylated histone H4 peptide (H4Ac4) and BRD4-BD1 or BRD4-BD2 protein at concentration less than 1 nM. The incubation for 75 min. was followed by the addition of 20 μL of assay buffer supplemented with Streptavidin donor beads (PerkinElmer 6760002) and GSH Acceptor beads (PerkinElmer-AL109C) at final concentration 2-4 μg/mL under reduced light. After plate sealing, the plate was incubated in the dark at room temperature for 75 min. before reading on a PHERAstar FS plate reader (BMG Labtech). IC50 determination was performed by fitting the curve of percent control activity versus the log of the inhibitor concentration using the GraphPad Prism 5.0 software.

The next experiment addresses BRD4-BD2 (Homo sapiens (Human), UniProt O60885). Briefly: BRD4 AlphaScreen assay (BRD4-BD2). The format is binding. To be noted: biotin-labeled tetra-acetylated histone H4 peptide. How it is done:
as §1
On the technique in general: Alpha assays give light when donor and acceptor beads are brought close together.

Molecules are shown by their SMILES.

Usually IC50 stands for the midpoint of a concentration-inhibition curve. For `CC(C)C1Oc2c(cc(S(C)(=O)=O)cc2-c2cn(C)c(=O)c3[nH]ccc23)NC1=O` (single isomer, unassigned) [Example 44B, 2-isopropyl-8-(6-methyl-7-oxo-6,7-dihydro-1H-pyrrolo[2,3-c]pyridin-4-yl)-6-(methylsulfonyl)-2H-1,4-benzoxazin-3(4H)-one], the IC50 against BRD4-BD1 and at BRD4-BD2 was ≤ 0.1 µM in each case.

For the compound `CC(C)C1Oc2c(cc(CO)cc2-c2cn(C)c(=O)c3[nH]ccc23)NC1=O` (stereo not shown) [Example 36, 6-(hydroxymethyl)-2-isopropyl-8-(6-methyl-7-oxo-6,7-dihydro-1H-pyrrolo[2,3-c]pyridin-4-yl)-2H-1,4-benzoxazin-3(4H)-one], the half-maximal inhibitory concentration (IC50) against BRD4-BD1 and on BRD4-BD2 was ≤ 0.1 µM in each case.

Turning to `Cn1cc(-c2cc(S(C)(=O)=O)cc3c2NC2(CCCC2)C(=O)N3)c2cc[nH]c2c1=O` [Example 59, 8′-(6-methyl-7-oxo-6,7-dihydro-1H-pyrrolo[2,3-c]pyridin-4-yl)-6′-(methylsulfonyl)-1′,4′-dihydro-3′H-spiro[cyclopentane-1,2′-quinoxalin]-3′-one], the IC50 against BRD4-BD1 and against BRD4-BD2 was ≤ 0.1 µM each time.

On to `CC(O)c1cc(-c2cn(C)c(=O)c3[nH]ccc23)c2c(c1)N(C)C(=O)C(C)(C)O2` (single isomer, unassigned) [Example 83A, 6-(1-hydroxyethyl)-2,2,4-trimethyl-8-(6-methyl-7-oxo-6,7-dihydro-1H-pyrrolo[2,3-c]pyridin-4-yl)-2H-1,4-benzoxazin-3(4H)-one], for which the IC50 against BRD4-BD1 and at BRD4-BD2 was ≤ 0.1 µM throughout.

As to `CNS(=O)(=O)c1cc2c(c(-c3cn(C)c(=O)c4[nH]ccc34)c1)OC(C(C)C)C(=O)N2` (stereo not shown) [Example 68, 2-isopropyl-N-methyl-8-(6-methyl-7-oxo-6,7-dihydro-1H-pyrrolo[2,3-c]pyridin-4-yl)-3-oxo-3,4-dihydro-2H-1,4-benzoxazine-6-sulfonamide], the IC50 at BRD4-BD1 and on BRD4-BD2 was ≤ 0.1 µM throughout.

On to `COc1cc2c(c(-c3cn(C)c(=O)c4[nH]ccc34)c1)OC(c1ccccc1)C(=O)N2` (stereo not shown) [Example 24, 6-methoxy-8-(6-methyl-7-oxo-6,7-dihydro-1H-pyrrolo[2,3-c]pyridin-4-yl)-2-phenyl-2H-1,4-benzoxazin-3(4H)-one], for which the IC50 against BRD4-BD1 and at BRD4-BD2 was ≤ 0.1 µM each time.

As for `COc1cc(-c2cn(C)c(=O)c3[nH]ccc23)c2c(c1)N(Cc1ccncc1)C(=O)C(C(C)C)O2` (stereo not shown) [Example 15, 2-isopropyl-6-methoxy-8-(6-methyl-7-oxo-6,7-dihydro-1H-pyrrolo[2,3-c]pyridin-4-yl)-4-(pyridin-4-ylmethyl)-2H-1,4-benzoxazin-3(4H)-one], the IC50 on BRD4-BD1 and on BRD4-BD2 was ≤ 0.1 µM each time.

With `CC(C)C1Oc2c(cc(C(N)=O)cc2-c2cn(C)c(=O)c3[nH]ccc23)NC1=O` (stereo not shown) [Example 41, 2-isopropyl-8-(6-methyl-7-oxo-6,7-dihydro-1H-pyrrolo[2,3-c]pyridin-4-yl)-3-oxo-3,4-dihydro-2H-1,4-benzoxazine-6-carboxamide], the IC50 against BRD4-BD1 and against BRD4-BD2 was ≤ 0.1 µM each time.

`Cn1cc(-c2cc(S(C)(=O)=O)cc3c2OC(CCO)C(=O)N3)c2cc[nH]c2c1=O` (stereo not shown) [Example 48, 2-(2-hydroxyethyl)-8-(6-methyl-7-oxo-6,7-dihydro-1H-pyrrolo[2,3-c]pyridin-4-yl)-6-(methylsulfonyl)-2H-1,4-benzoxazin-3(4H)-one]: the IC50 at BRD4-BD1 and against BRD4-BD2 was ≤ 0.1 µM throughout.

Regarding `COc1cc2c(c(-c3cn(C)c(=O)c4[nH]ncc34)c1)OC(C1CCCC1)C(=O)N2` (stereo not shown) [Example 42, 2-Cyclopentyl-6-methoxy-8-(6-methyl-7-oxo-6,7-dihydro-1H-pyrazolo[3,4-c]pyridin-4-yl)-2H-1,4-benzoxazin-3(4H)-one], the IC50 against BRD4-BD1 and on BRD4-BD2 was ≤ 0.1 µM throughout.

On to `COc1cc2c(c(-c3cn(C)c(=O)c4[nH]ccc34)c1)OC(c1ccc(F)cc1Cl)C(=O)N2` (stereo not shown) [Example 25, 2-(2-chloro-4-fluorophenyl)-6-methoxy-8-(6-methyl-7-oxo-6,7-dihydro-1H-pyrrolo[2,3-c]pyridin-4-yl)-2H-1,4-benzoxazin-3(4H)-one], for which the IC50 against BRD4-BD1 and on BRD4-BD2 was ≤ 0.1 µM in each case.

Regarding `Cn1cc(-c2cccc3c2OC(C2CC2)C(=O)N3)c2cc[nH]c2c1=O` (stereo not shown) [Example 6, 2-cyclopropyl-8-(6-methyl-7-oxo-6,7-dihydro-1H-pyrrolo[2,3-c]pyridin-4-yl)-2H-1,4-benzoxazin-3(4H)-one], the IC50 on BRD4-BD1 and at BRD4-BD2 was ≤ 0.1 µM each time.

As to `CC(=O)c1cc(-c2cn(C)c(=O)c3[nH]ccc23)c2c(c1)N(C)C(=O)C(C)(C)O2` [Example 82, 6-acetyl-2,2,4-trimethyl-8-(6-methyl-7-oxo-6,7-dihydro-1H-pyrrolo[2,3-c]pyridin-4-yl)-2H-1,4-benzoxazin-3(4H)-one], the IC50 against BRD4-BD1 and at BRD4-BD2 was ≤ 0.1 µM each time.

For `CC(C)C1Oc2c(cc(C(=O)N3CCOCC3)cc2-c2cn(C)c(=O)c3[nH]ccc23)NC1=O` (stereo not shown) [Example 33, 2-isopropyl-8-(6-methyl-7-oxo-6,7-dihydro-1H-pyrrolo[2,3-c]pyridin-4-yl)-6-(morpholin-4-ylcarbonyl)-2H-1,4-benzoxazin-3(4H)-one], the IC50 against BRD4-BD1 and on BRD4-BD2 was ≤ 0.1 µM in each case.

On to `CC(C)C1Oc2c(cc([N+](=O)[O-])cc2-c2cn(C)c(=O)c3[nH]ccc23)NC1=O` (stereo not shown) [Example 21, 2-isopropyl-8-(6-methyl-7-oxo-6,7-dihydro-1H-pyrrolo[2,3-c]pyridin-4-yl)-6-nitro-2H-1,4-benzoxazin-3(4H)-one], for which the half-maximal inhibitory concentration (IC50) was 0.1 to 1 µM against BRD4-BD1 and ≤ 0.1 µM on BRD4-BD2.

For the compound `CC(C)C1Oc2c(cc(-c3ccco3)cc2-c2cn(C)c(=O)c3[nH]ccc23)NC1=O` (stereo not shown) [Example 43, 6-(2-furyl)-2-isopropyl-8-(6-methyl-7-oxo-6,7-dihydro-1H-pyrrolo[2,3-c]pyridin-4-yl)-2H-1,4-benzoxazin-3(4H)-one], the figures for the IC50 on BRD4-BD1 and against BRD4-BD2 were 0.1 to 1 µM and ≤ 0.1 µM, respectively.

For the compound `CC1Oc2c(cccc2-c2cn(C)c(=O)c3[nH]ccc23)NC1=O` (stereo not shown) [Example 3, 2-methyl-8-(6-methyl-7-oxo-6,7-dihydro-1H-pyrrolo[2,3-c]pyridin-4-yl)-2H-1,4-benzoxazin-3(4H)-one], the IC50 is 0.1 to 1 µM against BRD4-BD1 and ≤ 0.1 µM against BRD4-BD2.

As for `COc1cc2c(c(-c3cn(C)c(=O)c4[nH]ncc34)c1)OC(C)(C)C(=O)N2` [Example 29, 6-methoxy-2,2-dimethyl-8-(6-methyl-7-oxo-6,7-dihydro-1H-pyrazolo[3,4-c]pyridin-4-yl)-2H-1,4-benzoxazin-3(4H)-one], the IC50 at BRD4-BD1 and at BRD4-BD2 was ≤ 0.1 µM throughout.

For `CC(O)c1cc(-c2cn(C)c(=O)c3[nH]ccc23)c2c(c1)N(C)C(=O)C(C)(C)O2` (single isomer, unassigned) [Example 83B, 6-(1-hydroxyethyl)-2,2,4-trimethyl-8-(6-methyl-7-oxo-6,7-dihydro-1H-pyrrolo[2,3-c]pyridin-4-yl)-2H-1,4-benzoxazin-3(4H)-one], the IC50 on BRD4-BD1 and against BRD4-BD2 was ≤ 0.1 µM in each case.

Take `COc1cc(-c2cn(C)c(=O)c3[nH]ccc23)c2c(c1)N(C)C(=O)C(C(C)C)O2` (stereo not shown) [Example 10, 2-isopropyl-6-methoxy-4-methyl-8-(6-methyl-7-oxo-6,7-dihydro-1H-pyrrolo[2,3-c]pyridin-4-yl)-2H-1,4-benzoxazin-3(4H)-one]: the IC50 at BRD4-BD1 and against BRD4-BD2 was ≤ 0.1 µM in each case.
